Measured values reported in patent US10449198B2, “Method for treating pain” (The University of Liverpool, priority 2016, dated 2019).

Assays:
[1] = system: neuropathic rats; test: Neuropathic pain model (partial sciatic nerve ligation): cold hyperalgesia, 10° C. cold plate paw withdrawal latency; format: in vivo, rat
Description: Fasted, male, Wistar rats. n=6/group. Vehicle: 10% DMSO/10% Solutol HS15/80% saline. 10 ml/kg p.o. One-way ANOVA, comparison with time-matched vehicle group using Tukey's HSD test, *p<0.05, **p<0.01, ***p<0.001.
• 1) In rats a peripheral neuropathy was induced by partial ligation of the sciatic nerve in one hind limb. • 2) Two weeks (12-15 days) after induction of peripheral neuropathy stable mechanical (tactile) allodynia was induced in the hind paw of the affected limb. • 3) Five treatment groups of male SD rats (n=8) were used: vehicle control (drug formulation), 3 drug doses, and a positive control, lamotrigine (30 mg/kg). Animals were randomized between groups and the experiment was carried out using blinded conditions. The study was split with n=4/group in each experiment. • 4) Baseline behavioural measurements were obtained prior to surgery and at intervals post-surgery. Predose behavioural measurements were obtained by measuring paw withdrawal thresholds 12-15 days following nerve ligation. • 5) Compound efficacy was determined by measuring paw withdrawal thresholds at specified intervals following vehicle/compound treatment. Animals […]
(§1) Compound/vehicle were administered at specified doses. Following treatment, further readings were taken; 1, 3, 6 and 24 hour after p.o. administration.
Cold sensitivity was assessed using a commercially available cold-plate (Ugo Basile, Milan). The cold-plate was set according to pre-determined calibration data using a surface temperature probe to correlate set temperature to actual surface temperature over a wide temperature range (−5° C. to 26° C.). […] Paw withdrawal latencies were determined with the cold-plate set at 10° C. […] The end point was taken as the withdrawal of the paw and recorded as the withdrawal latency for the ipsilateral and the contralateral paw. […]
(§2) Raw data were analysed using parametric statistical tests, including one-way analysis of variance (ANOVA) followed by Tukey's post hoc test repeated measures of ANOVA. […]

[2] = system: neuropathic rats; test: Neuropathic pain model (partial sciatic nerve ligation): tactile allodynia / mechanical paw withdrawal thresholds; format: in vivo, rat
Description: Fasted, male, Wistar rats. n=6/group. Vehicle: 10% DMSO/10% Solutol HS15/80% saline. 10 ml/kg p.o. One-way ANOVA, comparison with time-matched vehicle group using Tukey's HSD test, *p<0.05, **p<0.01, ***p<0.001
Protocol for study of compounds in a model of neuropathic pain: reversal of tactile allodynia.
• 1) In rats a peripheral neuropathy was induced by partial ligation of the sciatic nerve in one hind limb. • 2) Two weeks (12-15 days) after induction of peripheral neuropathy stable mechanical (tactile) allodynia was induced in the hind paw of the affected limb. • 3) Five treatment groups of male SD rats (n=8) were used: vehicle control (drug formulation), 3 drug doses, and a positive control, lamotrigine (30 mg/kg). Animals were randomized between groups and the experiment was carried out using blinded conditions. The study was split with n=4/group in each experiment. • 4) Baseline behavioural measurements were obtained prior to surgery and at intervals post-surgery. Predose behavioural measurements were obtained by measuring paw withdrawal thresholds 12-15 days following nerve ligation. • 5) Compound efficacy was determined by measuring paw withdrawal thresholds at specified intervals following vehicle/compound treatment. Animals
All animal procedures were carried out in accordance with the UK Animals (Scientific Procedures) Act 1986 and associated guidelines. Animals were maintained in a controlled lighting environment and given food and water ad libitum. Male Sprague Dawley rats (120-140 g at time of surgery) were used.
Tests compounds as well as lamotrigine (30 mg/kg, volume: 10 ml/kg)) were prepared in the designated formulation (10% DMSO, Solutol HS 15/80% and 0.9% saline for p.o. administration) and administered via the chosen route.
Allodynia was examined in the model of neuropathic pain induced by partial ligation of the sciatic nerve as described by Seltzer et al (1990). […]
Tactile allodynia was assessed by measuring withdrawal thresholds to calibrated von Frey hairs. […] The lowest amount of force required to elicit a response was recorded as the paw withdrawal threshold (in grams).
Allodynia was measured on both the ipsilateral (ligated) and contralateral (non-ligated) paw prior to (pre-dose) and at a set time point following compound or vehicle administration (post-dose). […]
as §1, §2

[3] = target: T1, α1 glycine (Homo sapiens, UniProt P23415); test: Glycine receptor activity, two-electrode voltage-clamp in Xenopus laevis oocytes; format: cell-based; settings: TEVC, holding potential −70 mV
T1 construct: expressed in transfected cells; host or cells: Xenopus laevis oocytes (cRNA injection)
T1 sequence (P23415 29-457): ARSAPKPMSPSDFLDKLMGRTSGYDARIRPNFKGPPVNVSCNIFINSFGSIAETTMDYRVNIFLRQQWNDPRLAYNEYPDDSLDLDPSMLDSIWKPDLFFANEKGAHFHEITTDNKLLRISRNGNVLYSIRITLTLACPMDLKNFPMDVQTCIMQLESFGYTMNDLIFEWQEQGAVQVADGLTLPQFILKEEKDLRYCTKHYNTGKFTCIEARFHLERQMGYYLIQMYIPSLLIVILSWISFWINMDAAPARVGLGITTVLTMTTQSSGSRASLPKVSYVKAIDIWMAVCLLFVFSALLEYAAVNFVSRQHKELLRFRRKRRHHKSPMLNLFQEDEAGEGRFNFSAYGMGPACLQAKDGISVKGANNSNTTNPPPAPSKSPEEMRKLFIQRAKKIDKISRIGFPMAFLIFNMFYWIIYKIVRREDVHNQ
Description: Oocytes were surgically removed from adult female Xenopus laevis clawfrogs anaesthetized by immersion in 0.3% tricaine in water (w/v). All protocols were approved by the local animal care and use committee (II25.3-19c20/15; RP Darmstadt, Germany). Stage V and VI Oocytes were dissected and stored in sterile-filtered ND96 medium (composition in mM: 96 NaCl, 2 KCl, 1 CaCl, 1 MgCl, 5 HEPES, pH 7.4) containing gentamycin (50 μg/mL). The oocytes were isolated and enzymatically and maintained as described previously (Grudzinska et al., 2005). Oocytes were injected with 5 ng of cRNA using a Drummond microinjector (Drummond Scientific, Broomall, USA) and incubated in ND96 for 24 h at 18° C. before electrophysiological recording. Two-electrode voltage-clamp (TEVC) with microelectrodes containing 3 M KCl was performed in bath solution at a holding potential of −70 mV as described previously (Laube et al., 2000). […]
Currents were measured with Clampfit 9.2 software (Molecular Devices), Results were analyzed using the KaleidaGraph program (Synergy Software, Reading, Pa.) and GraphPad Prism version 5.0 (GraphPad Software Inc., San Diego, Calif.). […] For propofol and 4-chloropropofol modulation, responses to EC20 glycine after application were analyzed as described previously (Lynagh and Laube, 2014); mean±standard error of the mean (SEM) are reported. […]

[4] = contralateral (non-ligated) paw

melting point: 174 to 176 °C | EC50 [3]: 0.46 nM
Compound: CC(C)(C)c1cc(C(=O)N2CCOCC2)cc(C(C)(C)C)c1O [Compound 82, (3,5-Di-tert-butyl-4-hydroxyphenyl)(morpholino) methanone]
Peak reversal of cold hyperalgesia ([1]; 30 mg/kg p.o., at 1 h, 10° C. cold plate, neuropathic rats): 74% | Contralateral paw withdrawal latencies to cold [1, 4]: increased | Reversal of cold (10° C. cold plate) parameter ([1]; p.o., neuropathic rats): marked and long-lasting reversal | Peak reversal of tactile allodynia ([2]; 30 mg/kg p.o., at 1 h, ipsilateral paw, neuropathic rats): 72% | Efficacy across doses (cold and mechanical parameters) ([2]; all three doses, p.o.): good and dose-related efficacy | Contralateral paw withdrawal thresholds to mechanical pressure [2, 4]: significant increase | Reversal of mechanical (paw pressure) parameter ([2]; p.o., neuropathic rats): marked and long-lasting reversal
